Molecular target: T1, estrogen receptor alpha (ESR1) in MCF7 breast cancer cells (Homo sapiens, UniProt P03372)
T1 sequence (P03372 1-595): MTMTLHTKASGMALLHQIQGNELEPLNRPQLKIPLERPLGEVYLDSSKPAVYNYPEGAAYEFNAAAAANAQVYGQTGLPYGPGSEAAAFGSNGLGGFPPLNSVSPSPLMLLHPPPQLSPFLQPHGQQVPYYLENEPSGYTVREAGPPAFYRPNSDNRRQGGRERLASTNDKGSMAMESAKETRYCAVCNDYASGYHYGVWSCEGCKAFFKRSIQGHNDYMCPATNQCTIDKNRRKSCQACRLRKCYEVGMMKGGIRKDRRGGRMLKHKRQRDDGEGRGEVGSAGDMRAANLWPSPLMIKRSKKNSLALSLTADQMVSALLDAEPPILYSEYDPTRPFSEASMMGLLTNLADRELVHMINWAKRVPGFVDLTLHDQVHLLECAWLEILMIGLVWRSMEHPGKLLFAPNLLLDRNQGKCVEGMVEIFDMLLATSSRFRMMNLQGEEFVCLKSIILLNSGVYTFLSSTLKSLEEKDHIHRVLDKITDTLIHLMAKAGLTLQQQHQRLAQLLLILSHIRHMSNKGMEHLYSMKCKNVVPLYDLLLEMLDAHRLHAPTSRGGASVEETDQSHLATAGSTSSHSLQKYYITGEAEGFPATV
Experiment: Breast Cancer Cell ERa High Content Fluorescence Imaging Degradation Assay (ER-alpha MCF7 HCS)
Type: cell-based
Design: endogenous in cells; host or cells: MCF7 breast cancer cells; key to ERalpha (WT) MCF7HCS (Sinf): % change in ERα level; DMSO = 0%, fulvestrant = 100% change
Details: 4 hours, plateau of the maximal effect; for ER-alpha MCF7HCS Sinf: DMSO and fulvestrant define 0% and 100% change in ESR1, Table 1a
Protocol: All of the exemplary Formula I, II, and III compounds in Tables 1a and 1b were made and characterized by LCMS [M+H]^+ (liquid chromatography mass spectroscopy) with detection of parent ion. All of the exemplary Formula I, II, and III compounds in Tables 1a and 1b were tested for binding to ERa (Estrogen Receptor alpha) and biological activity according to the assays, protocols, and procedures of Examples 901-907. ER-alpha MCF7 HCS Sinf (%) values in Tables 1a and 1b were measured by the Breast Cancer Cell ERa High Content Fluorescence Imaging Degradation Assay of Example 901. ER-alpha MCF7 HCS EC50 (μM) values in Tables 1a and 1b were measured by the in vitro cell proliferation assays described in Examples 902 and 903. The rat uterine wet weight assays of Examples 906 and 907 allow rapid determination of compound antagonist activity in an ER responsive tissue (immature rat uterus) while competing against the native ER ligand estradiol, i.e. antagonist mode (Ashby, J.; et al (1997) Regulatory toxicology and pharmacology: RTP, 25 (3):226-31). Exemplary Formula I, II, and III compounds in Tables 1a and 1b have the following structures, corresponding names (ChemBioDraw, Version 12.0.2, CambridgeSoft Corp., Cambridge Mass.), and biological activity. Where more than one name is associated with a Formula I, II, and III compound or intermediate, the chemical structure shall define the compound.
MCF7 breast cancer cells were seeded on day 1 at a density of 10,000 cells per well in 384 well poly-lysine coated tissue culture plate (Greiner # T-3101-4), in 50 μL/well RPMI (phenol red free), 10% FBS (Charcoal stripped), containing L-glutamine. On day 2, compounds were prepared at 2 compound source concentrations: 100 μM and 1 μM (ultimately to give 2 overlapping titration curves), in a Labcyte low dead volume plate, 10 μL/well, and 10 μL of DMSO in designated wells for backfill, and 5 μM Fulvestrant (control compound) in designated wells. Compounds and controls were dispensed using a Labcyte Echo acoustic dispenser to dispense compounds with a predefined serial dilution (1.8×, 10 point, in duplicate) and appropriate backfill and control compounds (final total volume transferred was 417.5 nL and compound dispense volume ranges from 2.5 nL to 417.5 nL; 0.84% DMSO (v/v) final), ultimately producing a concentration range from 0.05 nM to 835 nM. Cell plates were incubated at 37° C., for 4 hours. Fixation and permeabilization were carried out using a Biotek EL406 plate washer and dispenser as follows. Cells were fixed by addition of 15 μL of 16% paraformaldehyde (Electron Microscopy Sciences #15710-S) directly to the 50 μL cell culture medium in each well using the peristaltic pump 5 μL cassette on a Biotek EL406 (final concentration of formaldehyde was 3.7% w/v). Samples were incubated 30 minutes. Well contents was aspirated and 50 μL/well of Phosphate Buffered Saline (PBS) containing 0.5% w/v bovine serum albumen, 0.5% v/v Triton X-100 (Antibody Dilution Buffer) was added to each well. Samples were incubated for 30 minutes. Well contents were aspirated and washed 3 times with 100 μL/well of PBS. Immunofluorescence staining of estrogen receptor alpha (ESR1) was carried out using a Biotek EL406 plate washer and dispenser as follows. The well supernatant was aspirated from the wells and 25 μL/well of anti-ESR1 mAb (F10) (Santa Cruz sc-8002) diluted 1:1000 in Antibody Dilution Buffer was dispensed. Samples were incubated for 2 hours at room temperature. Samples were washed 4 times with 100 μL/well of PBS. 25 uL (microliters)/well of secondary antibody solution (Alexafluor 488 conjugate anti-mouse IgG (LifeTechnologies # A21202) diluted 1:1000 and Hoechst 33342 1 μg/ml diluted in Antibody Dilution Buffer) were dispensed into each well. Samples were incubated for 2 hours at room temperature. Samples were washed 3 times with 100 μL/well of PBS using a Biotek EL406. Quantitative fluorescence imaging of ESR1 was carried out using a Cellomics Arrayscan V (Thermo). […]

Row | ER-alpha MCF7HCS Sinf [%] | ERalpha (WT) MCF7HCS (Sinf) (DMSO and fulvestrant define 0% and 100% change in ESR1, Table 1b) | Structure (SMILES)
1 | −93.5 |  | C[C@@H]1CCc2c([nH]c3ccccc23)[C@@H](c2c(F)cc(OCCN3CC(CF)C3)cc2F)N1CC(C)(C)F [Example 116, (1R,3R)-1-(2,6-difluoro-4-(2-(3-(fluoromethyl)azetidin-1-yl)ethoxy)phenyl)-2-(2-fluoro-2-methylpropyl)-3-methyl-1,2,3,4,5,10-hexahydroazepino[3,4-b]indole]
2 | −75 |  | C[C@H]1CCN(CC(C)(C)F)[C@@H](c2c(F)cc(OCCN3CC(CF)C3)cc2F)c2[nH]c3ccccc3c21 [Example 124, (1S,5S)-1-(2,6-difluoro-4-(2-(3-(fluoromethyl)azetidin-1-yl)ethoxy)phenyl)-2-(2-fluoro-2-methylpropyl)-5-methyl-1,2,3,4,5,10-hexahydroazepino[3,4-b]indole]
3 | −94.2 |  | C[C@@H]1Cc2[nH]c3ccccc3c2[C@@H](c2c(F)cc(OCCN3CC(CF)C3)cc2F)N1CC(C)(C)F [Example 137, (1S,3R)-1-(2,6-difluoro-4-(2-(3-(fluoromethyl)azetidin-1-yl)ethoxy)phenyl)-2-(2-fluoro-2-methylpropyl)-3-methyl-2,3,4,5-tetrahydro-1H-pyrido[4,3-b]indole]
4 |  | −96 | C[C@@H]1Cc2oc3ccccc3c2[C@@H](c2c(F)cc(OCCN3CC(CF)C3)cc2F)N1CC(C)(C)F (stereo in doubt) [Example 167, 1-(2,6-difluoro-4-(2-(3-(fluoromethyl)azetidin-1-yl)ethoxy)phenyl)-2-(2-fluoro-2-methylpropyl)-3-methyl-1,2,3,4-tetrahydrobenzofuro [3,2-c]pyridine]
5 | −101 |  | C[C@H]1CCN(CC(C)(C)F)[C@H](c2c(F)cc(OCCN3CC(CF)C3)cc2F)c2[nH]c3ccccc3c21 [Example 125, (1R,5S)-1-(2,6-difluoro-4-(2-(3-(fluoromethyl)azetidin-1-yl)ethoxy)phenyl)-2-(2-fluoro-2-methylpropyl)-5-methyl-1,2,3,4,5,10-hexahydroazepino[3,4-b]indole]
6 | −95.7 |  | C[C@@H]1Cc2[nH]c3ccccc3c2[C@@H](c2c(F)cc(OCCN3CC(CF)C3)cc2F)N1CC(F)(F)CO (single isomer, unassigned) [Example 147]

Further lines, the compound ahead of its results:

Row | Structure (SMILES) | ER-alpha MCF7HCS Sinf [%] | ERalpha (WT) MCF7HCS (Sinf) (DMSO and fulvestrant define 0% and 100% change in ESR1, Table 1b)
7 | CC(F)(CO)CN1CCCc2c([nH]c3ccccc23)[C@@H]1c1c(F)cc(OCCN2CC(CF)C2)cc1F (stereo partly drawn) [Example 119, 3-((S)-1-(2,6-difluoro-4-(2-(3-(fluoromethyl)azetidin-1-yl)ethoxy)phenyl)-3,4,5,10-tetrahydroazepino[3,4-b]indol-2(1H)-yl)-2-fluoro-2-methylpropan-1-ol] | −95.6 | 
8 | C[C@@H]1Cc2[nH]c3ccccc3c2[C@@H](c2c(F)cc(NC3CN(CCCF)C3)cc2F)N1CC(F)F [Example 150, N-(4-((1S,3R)-2-(2,2-difluoroethyl)-3-methyl-2,3,4,5-tetrahydro-1H-pyrido[4,3-b]indol-1-yl)-3,5-difluorophenyl)-1-(3-fluoropropyl) azetidin-3-amine] | −99.4 | 
9 | C[C@H]1Cc2[nH]c3ccccc3c2[C@H](c2c(F)cc(OCCN3CC(CF)C3)cc2F)N1CC(F)(F)CO (single isomer, unassigned) [Example 148] | −79 | 
10 | C[C@@H]1Cc2sc3ccccc3c2[C@@H](c2ccc(OCCN3CC(CF)C3)cc2)N1CC(C)(C)F [Example 128, (1R,3R)-2-(2-fluoro-2-methylpropyl)-1-(4-(2-(3-(fluoromethyl)azetidin-1-yl)ethoxy)phenyl)-3-methyl-1,2,3,4-tetrahydrobenzo[4,5]thieno[3,2-c]pyridine] | −101 | 
11 | C[C@@H]1Cc2[nH]c3ccccc3c2[C@@H](c2c(F)cc(OC3CN(CCCF)C3)cc2F)N1CC(F)(F)CO (relative stereo) [Example 144, trans-3-(1-(2,6-difluoro-4-(1-(3-fluoropropyl)azetidin-3-yloxy)phenyl)-3-methyl-3,4-dihydro-1H-pyrido[4,3-b]indol-2(5H)-yl)-2,2-difluoropropan-1-ol] | −98.8 | 
12 | C[C@@H]1Cc2c([nH]c3ccccc23)[C@]2(CCc3nc(OCCN4CC(CF)C4)ccc32)N1CC(F)(F)F [Example 134, (3′R,5R)-2-(2-(3-(fluoromethyl)azetidin-1-yl)ethoxy)-3′-methyl-2′-(2,2,2-trifluoroethyl)-2′,3′,4′,6,7,9′-hexahydrospiro [cyclopenta[b]pyridine-5,1′-pyrido [3,4-b]indole]] | −96.5 | 
13 | C[C@@H]1Cc2sc3ccccc3c2[C@H](c2ccc(OCCN3CC(CF)C3)cc2)N1CC(C)(C)F (single isomer, unassigned) [Example 130] | −76.8 | 
14 | C[C@@H]1Cn2c(cc3ccccc32)[C@@H](c2c(F)cc(NC3CN(CCCF)C3)cc2F)N1CC(C)(C)F [Example 127, N-(3,5-Difluoro-4-((1R,3R)-2-(2-fluoro-2-methylpropyl)-3-methyl-1,2,3,4-tetrahydropyrazino[1,2-a]indol-1-yl)phenyl)-1-(3-fluoropropyl)azetidin-3-amine] | −100 | 
15 | C[C@@H]1Cc2c(oc3ccccc23)[C@@H](c2c(F)cc(NC3CN(CCCF)C3)cc2F)N1CC(F)(F)CO (single isomer, unassigned) [Example 157] | −102 | 
16 | C[C@@H]1Cc2c([nH]c3ccccc23)[C@H]2c3c(F)cc(OCCN4CC(CF)C4)cc3OCC(F)(F)CN21 [Example 112, (10R,16bR)-1,7,7-Trifluoro-3-(2-(3-(fluoromethyl)azetidin-1-yl)ethoxy)-10-methyl-7,8,10,11,16,16b-hexahydro-6H-benzo[2′,3′][1,5]oxazocino[5′,4′:1,2]pyrido[3,4-b]indole] | −50 | 
17 | CC(C)C(=O)N1[C@H](c2c(F)cc(OCCN3CC(CF)C3)cc2F)c2oc3ccccc3c2C[C@H]1C (single isomer, unassigned) [Example 101] | −94.5 | 
18 | C[C@H]1Cc2sc3ccccc3c2[C@H](c2ccc(OCCN3CC(CF)C3)cc2)N1CC(C)(C)F [Example 129, (1S,3S)-2-(2-Fluoro-2-methylpropyl)-1-(4-(2-(3-(fluoromethyl)azetidin-1-yl)ethoxy)phenyl)-3-methyl-1,2,3,4-tetrahydrobenzo[4,5]thieno[3,2-c]pyridine] | −43.8 | 

From US10654867B2 (Genentech, Inc., priority 2016, dated 2020)
